Assay results: PubChem BioAssay AID651833 (Broad Institute, 2012)
Active and inactive are the calls of the source.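 The calls were made as follows: active = fitted curve reaching 40% activation at or below the sample's highest valid tested dose; inconclusive = flat fit between 30% and 70%, or poor fit; inactive = the rest, including opposite-direction activity.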

These molecules were tested against Kelch-like ECH-associated protein 1 (Homo sapiens) + Nuclear factor erythroid 2-related factor 2 (Homo sapiens) (UniProt Q14145+Q16236) (assay: cellular Nrf2 nuclear translocation induction – PathHunter, U2OS cells, dry powder, orthogonal assay for Keap1-Nrf2 interaction inhibitor project, dose response (AID 651833)). Settings: beta-gal luminescence, 3 h, at 38 µM (top of the series).
Kelch-like ECH-associated protein 1 (Homo sapiens) + Nuclear factor erythroid 2-related factor 2 (Homo sapiens), sequence (Q14145 whole entry, looked up): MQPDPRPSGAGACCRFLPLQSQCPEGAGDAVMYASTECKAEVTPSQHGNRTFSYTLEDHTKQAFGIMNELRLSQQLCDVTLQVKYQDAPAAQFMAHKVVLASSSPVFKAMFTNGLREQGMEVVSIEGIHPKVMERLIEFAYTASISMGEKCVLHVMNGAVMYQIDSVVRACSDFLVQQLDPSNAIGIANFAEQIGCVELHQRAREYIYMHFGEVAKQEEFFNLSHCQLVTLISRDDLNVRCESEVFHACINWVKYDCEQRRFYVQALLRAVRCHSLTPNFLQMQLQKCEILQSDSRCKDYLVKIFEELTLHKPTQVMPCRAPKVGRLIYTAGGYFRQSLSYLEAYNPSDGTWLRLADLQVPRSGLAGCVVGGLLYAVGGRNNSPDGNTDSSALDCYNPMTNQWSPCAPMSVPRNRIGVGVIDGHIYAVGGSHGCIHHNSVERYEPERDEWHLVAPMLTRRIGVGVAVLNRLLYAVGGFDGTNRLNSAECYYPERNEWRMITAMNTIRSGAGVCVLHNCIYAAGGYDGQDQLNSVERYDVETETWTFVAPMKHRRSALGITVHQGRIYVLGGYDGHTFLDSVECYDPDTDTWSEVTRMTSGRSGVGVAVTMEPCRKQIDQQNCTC
Kelch-like ECH-associated protein 1 (Homo sapiens) + Nuclear factor erythroid 2-related factor 2 (Homo sapiens), sequence (Q16236 whole entry, looked up): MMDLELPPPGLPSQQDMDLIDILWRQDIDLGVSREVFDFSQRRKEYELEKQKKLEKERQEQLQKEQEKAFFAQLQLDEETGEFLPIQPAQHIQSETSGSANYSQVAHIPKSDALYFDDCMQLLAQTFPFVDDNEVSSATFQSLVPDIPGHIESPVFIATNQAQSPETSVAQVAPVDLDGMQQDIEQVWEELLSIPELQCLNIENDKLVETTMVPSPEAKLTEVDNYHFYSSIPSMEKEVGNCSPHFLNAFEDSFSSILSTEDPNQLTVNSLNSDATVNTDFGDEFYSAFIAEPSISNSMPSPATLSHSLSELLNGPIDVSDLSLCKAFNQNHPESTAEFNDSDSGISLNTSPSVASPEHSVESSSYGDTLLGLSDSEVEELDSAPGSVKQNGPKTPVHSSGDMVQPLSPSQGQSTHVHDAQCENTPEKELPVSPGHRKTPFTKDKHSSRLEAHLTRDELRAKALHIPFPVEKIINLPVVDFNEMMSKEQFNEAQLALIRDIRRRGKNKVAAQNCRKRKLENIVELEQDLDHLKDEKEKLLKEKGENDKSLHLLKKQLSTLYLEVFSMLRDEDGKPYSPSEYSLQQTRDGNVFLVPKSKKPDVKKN

activation, inactive:
CCOC(=O)C(C(=O)OCC)c1cc(CN2C(=O)c3ccccc3C2=O)c2ccccc2n1 9.41%, COc1ccc(CCN=C2C=C(NS(=O)(=O)c3c(C)cc(C)cc3C)c3ccccc3C2=O)cc1 5.19%, NC(=O)c1ccccc1C(=O)NC[C@@H]1c2ccccc2CCN1C(=O)[C@@H]1CCCC[C@@H]1C(=O)O 8.88%, O=C(O)C1CCCCC1C(=O)N1CCc2ccccc2[C@H]1C(=O)NCCc1ccccc1 (stereo not given in full) 0.849%, C[C@H](NC(=O)C1CCCC[C@H]1C(=O)O)c1ccccc1 (mixture of isomers) -4.29%
